Where “and” joins values, the source holds several entries; their conditions need not be identical. Identical values can stand only once.
Tested on: self-administration (addictive potential)
Test: I.v. self-administration of CP612, between-session progressive ratio and demand curve
Description: We tested the addictive potential of CP612 by examining the extent to which rats are willing to work to obtain CP612. Rats were initially trained to self-administer either saline, morphine (500 μg/kg/i.v. infusion), or 1 of 3 different doses of CP612 (75, 150, or 300 μg/kg/i.v. infusion) for 4 days at fixed ratio 1 (FR1, where 1 nose poke delivers 1 infusion).
During the second phase, the ratio to obtain an infusion increased geometrically every other day (FR1, FR3, FR6, FR12, FR24, FR48, and FR96).
Data (number of self-infusions) were also fitted in an economic-demand curve, which provides an estimate of the motivation to obtain drugs and their addictive potential ([20]). We measured elasticity (α), which is the relative change in consumption as a function of price (i.e., ratio of nose pokes required to obtain an infusion). Behavior is considered “inelastic” when consumption is insensitive to price and “elastic” when consumption is sensitive to price. We also measured Pmax, which is the price at which intake switches from inelastic to elastic. […] (Figure 8B).
Rats not immediately anesthetized were eliminated from the study.
Following this initial acquisition phase at FR1, the ratio to obtain the drug was increased geometrically every other day: FR3 (3 nose pokes are required to obtain 1 infusion of morphine), FR6, FR12, FR24, FR48, and FR96. This allows for analysis of drug consumption as a function of “price” using demand curves for behavioral economics, which can estimate the motivation to obtain drugs and their “addictive potential” ([20]). For this, data from each rat were fitted to the equation log Q = log Q0 + k (e ^–α(Q0 ^C) – 1), where Q represents consumption (number of self-infusions), and Q0 represents the level of consumption at the lowest price. C represents price for the drug (i.e., the ratio), and k is set to a constant accounting for the estimated range of consumption in logarithmic units (k = 4 in these studies). The symbol α is the relative change in consumption across changes in price (ratio). Behavior is considered “inelastic” when consumption is insensitive to price (i.e., the curve is flat, and consumption is maintained despite increases in price), and it switches to “elastic” when consumption is sensitive to price (i.e., when the curve is steep and consumption declines with increases in price). […] We also compared groups for their average intake in the consumption-price curves by measuring α (elasticity) and Pmax.

N[C@H](CNC(=O)C1(c2ccc(Cl)cc2)CCCC1)c1ccc(C(=O)Nc2ccncc2)cc1 [CP612]
AVG Latency (FR12) (CP612-Mid, individual rat): 0.5 and 1.1 and 1.0 and 3.5 and 4.2
AVG Latency (FR24) (CP612-Mid, individual rat): 0.3 and 1.4 and 1.0 and 1.5
AVG Latency (FR48) (CP612-Mid, individual rat): 0.112 and 1.3 and 0.7 and 0.539 and 2.5
AVG Latency (FR96) (CP612-Mid, individual rat): 2.0 and 0.8 and 0.6 and 2.4
D1 Latency (FR1) (CP612-Mid, individual rat): 3.8 and 0.15 and 0.8 and 0.215
D1 Latency (FR3) (CP612-Mid, individual rat): 0.137 and 0.557 and 0.083 and 0.1 and 1.4
D1 Latency (FR6) (CP612-Mid, individual rat): 0.9 and 1.2 and 1.4 and 3.2 and 4.8
D1 Latency (FR12) (CP612-Mid, individual rat): 0.255 and 1.6 and 1.7 and 5.8
D1 Latency (FR24) (CP612-Mid, individual rat): 0.108 and 2.3 and 0.4 and 0.282 and 2.0
D1 Latency (FR48) (CP612-Mid, individual rat): 0.123 and 1.4 and 0.337 and 0.447 and 2.9
D1 Latency (FR96) (CP612-Mid, individual rat): 2.4 and 0.76 and 0.8 and 2.5 and 0.4
D2 Latency (FR1) (CP612-Mid, individual rat): 0.5 and 0.215 and 0.6 and 0.237 and 2.1
D2 Latency (FR3) (CP612-Mid, individual rat): 1.4 and 0.375 and 2.2 and 0.065 and 0.125
D2 Latency (FR6) (CP612-Mid, individual rat): 0.335 and 0.737 and 0.17 and 2.8 and 5.1
D2 Latency (FR12) (CP612-Mid, individual rat): 0.7 and 0.6 and 0.4 and 5.2 and 2.6
D2 Latency (FR24) (CP612-Mid, individual rat): 0.5 and 0.432 and 0.168 and 1.7 and 1.0
D2 Latency (FR48) (CP612-Mid, individual rat): 0.1 and 1.2 and 1.0 and 0.632 and 2.0
D2 Latency (FR96) (CP612-Mid, individual rat): 1.7 and 0.8 and 0.435 and 2.3
D3 Latency (FR1) (CP612-Mid, individual rat): 0.237 and 0.127 and 0.132 and 0.128 and 0.347
D4 Latency (FR1) (CP612-Mid, individual rat): 0.8 and 1.4 and 0.4 and 3.8
last Latency (FR1) (CP612-Mid, individual rat): 0.158 and 0.458 and 0.11 and 0.378 and 3.0
last-1 Latency (FR1) (CP612-Mid, individual rat): 0.8 and 1.4 and 0.4 and 3.8
last-2 Latency (FR1) (CP612-Mid, individual rat): 0.237 and 0.127 and 0.132 and 0.128 and 0.347
last-3 Latency (FR1) (CP612-Mid, individual rat): 0.237 and 0.215 and 0.6 and 0.128 and 0.347
AVG Latency (FR1_D1 to D4) (CP612-Mid, individual rats): 1.8 and 5.8 and 0.9
AVG Latency (FR1_Last 2 FR1 days) (CP612-Mid, individual rats): 0.456 and 1.8 and 0.373
AVG Latency (FR1_Last 4 FR1 days) (CP612-Mid, individual rats): 0.455 and 2.3 and 0.265
AVG Latency (FR3) (CP612-Mid, individual rats): 0.7 and 0.9 and 0.6
AVG Latency (FR6) (CP612-Mid, individual rats): 1.0 and 2.4 and 0.144
AVG Latency (FR12) (CP612-Mid, individual rats): 0.657 and 1.0 and 0.8
AVG Latency (FR24) (CP612-Mid, individual rats): 0.8 and 0.757 and 0.6
AVG Latency (FR48) (CP612-Mid, individual rats): 2.5 and 6.0 and 0.7
AVG Latency (FR96) (CP612-Mid, individual rats): 1.0 and 1.3
D1 Latency (FR1) (CP612-Mid, individual rats): 5.7 and 14.9 and 2.9
D1 Latency (FR3) (CP612-Mid, individual rats): 1.0 and 0.8 and 0.465
D1 Latency (FR6) (CP612-Mid, individual rats): 1.7 and 4.2 and 0.257
D1 Latency (FR12) (CP612-Mid, individual rats): 0.9 and 1.9 and 1.1
D1 Latency (FR24) (CP612-Mid, individual rats): 1.1 and 0.9 and 0.442
D1 Latency (FR48) (CP612-Mid, individual rats): 1.5 and 0.8 and 1.2
D1 Latency (FR96) (CP612-Mid, individual rats): 1.1 and 0.335 and 0.8
D2 Latency (FR1) (CP612-Mid, individual rats): 0.7 and 3.0 and 0.022
D2 Latency (FR3) (CP612-Mid, individual rats): 0.4 and 1.0 and 0.738
D2 Latency (FR6) (CP612-Mid, individual rats): 0.427 and 0.638 and 0.03
D2 Latency (FR12) (CP612-Mid, individual rats): 0.377 and 0.168 and 0.5
D2 Latency (FR24) (CP612-Mid, individual rats): 0.5 and 0.6 and 0.753
D2 Latency (FR48) (CP612-Mid, individual rats): 3.5 and 11.3 and 0.2
D2 Latency (FR96) (CP612-Mid, individual rats): 0.8 and 2.3 and 1.1
D3 Latency (FR1) (CP612-Mid, individual rats): 0.6 and 4.4 and 0.157
D4 Latency (FR1) (CP612-Mid, individual rats): 0.3 and 1.0 and 0.57
last Latency (FR1) (CP612-Mid, individual rats): 0.2 and 0.6 and 0.177
last-1 Latency (FR1) (CP612-Mid, individual rats): 0.7 and 3.1 and 0.57
last-2 Latency (FR1) (CP612-Mid, individual rats): 0.3 and 1.0 and 0.157
last-3 Latency (FR1) (CP612-Mid, individual rats): 0.6 and 4.4 and 0.157
AVG Inf (FR96) (rat, in vivo): 0.0
Addictive potential (rat, in vivo): highly unlikely to be addictive
D1 Inf (FR96) (rat, in vivo): 0
D2 Inf (FR96) (rat, in vivo): 0
AVG Inf (FR96) (rat, in vivo, 2 h): 0.0
D1 Inf (FR96) (rat, in vivo, 2 h): 0
D2 Inf (FR96) (rat, in vivo, 2 h): 0
D1 Inf (FR48) (rat, in vivo, 1 day at FR48): 0
D1 Inf (FR96) (rat, in vivo, 1 day at FR96): 0
D2 Inf (FR48) (rat, in vivo, 2 day at FR48): 0
D2 Inf (FR96) (rat, in vivo, 2 day at FR96): 0

— article PMC12016938, “A small molecule PKCε inhibitor reduces hyperalgesia induced by paclitaxel or opioid withdrawal” (JCI Insight, 2025)
